Assay results as given in patent US9932320B2 (BRISTOL-MYERS SQUIBB COMPANY, priority 2014, dated 2018).
Read-outs that look alike come from different tables or passages of the source.

Biological target: T1, AAK1 (GST-Xa-hAAK1) (Homo sapiens, UniProt Q2M2I8)
T1 construct: made in house
Assay: AAK1 Kinase Assay (Caliper LabChip, fluoresceinated peptide substrate)
Format: biochemical
Details: AAK1 functional potency
Method: The assays were performed in U-bottom 384-well plates. The final assay volume was 30 μl prepared from 15 μl additions of enzyme and substrates (fluoresceinated peptide (5-FAM)-Aha-KEEQSQITSQVTGQIGWR-NH2 and ATP) and test compounds in assay buffer (10 mM Tris-HCL pH 7.4, 10 mM MgCl2, 0.01% Tween-20 and 1.0 mM DTT). The reactions were initiated by the combination of bacterially expressed, GST-Xa-hAAK1 with substrates and test compounds. The reactions were incubated at room temperature for 3 hours and terminated by adding 60 μl of 35 mM EDTA buffer to each sample. The reactions were analyzed on the Caliper LabChip 3000 (Caliper, Hopkinton, Mass.) by electrophoretic separation of the fluorescent substrate and phosphorylated product. Inhibition data were calculated by comparison to EDTA quenched control reactions for 100% inhibition and vehicle-only reactions for 0% inhibition. The final concentration of reagents in the assays are ATP, 22 μM; (5-FAM)-Aha-KEEQSQITSQVTGQIGWR-NH2, 1.5 μM; GST-Xa-hAAK1, 3.5 nM; and DMSO, 1.6%. Dose response curves were generated to determine the concentration required inhibiting 50% of kinase activity (IC50). Compounds were dissolved at 10 mM in dimethylsulfoxide (DMSO) and evaluated at eleven concentrations. IC50 values were derived by non-linear regression analysis.

[1] = class symbols, read-out: IC50 (nM), functional potency as IC50 ranges
[2] = numeric values, read-out: IC50 (nM), functional potency

T1 sequence (Q2M2I8 whole entry): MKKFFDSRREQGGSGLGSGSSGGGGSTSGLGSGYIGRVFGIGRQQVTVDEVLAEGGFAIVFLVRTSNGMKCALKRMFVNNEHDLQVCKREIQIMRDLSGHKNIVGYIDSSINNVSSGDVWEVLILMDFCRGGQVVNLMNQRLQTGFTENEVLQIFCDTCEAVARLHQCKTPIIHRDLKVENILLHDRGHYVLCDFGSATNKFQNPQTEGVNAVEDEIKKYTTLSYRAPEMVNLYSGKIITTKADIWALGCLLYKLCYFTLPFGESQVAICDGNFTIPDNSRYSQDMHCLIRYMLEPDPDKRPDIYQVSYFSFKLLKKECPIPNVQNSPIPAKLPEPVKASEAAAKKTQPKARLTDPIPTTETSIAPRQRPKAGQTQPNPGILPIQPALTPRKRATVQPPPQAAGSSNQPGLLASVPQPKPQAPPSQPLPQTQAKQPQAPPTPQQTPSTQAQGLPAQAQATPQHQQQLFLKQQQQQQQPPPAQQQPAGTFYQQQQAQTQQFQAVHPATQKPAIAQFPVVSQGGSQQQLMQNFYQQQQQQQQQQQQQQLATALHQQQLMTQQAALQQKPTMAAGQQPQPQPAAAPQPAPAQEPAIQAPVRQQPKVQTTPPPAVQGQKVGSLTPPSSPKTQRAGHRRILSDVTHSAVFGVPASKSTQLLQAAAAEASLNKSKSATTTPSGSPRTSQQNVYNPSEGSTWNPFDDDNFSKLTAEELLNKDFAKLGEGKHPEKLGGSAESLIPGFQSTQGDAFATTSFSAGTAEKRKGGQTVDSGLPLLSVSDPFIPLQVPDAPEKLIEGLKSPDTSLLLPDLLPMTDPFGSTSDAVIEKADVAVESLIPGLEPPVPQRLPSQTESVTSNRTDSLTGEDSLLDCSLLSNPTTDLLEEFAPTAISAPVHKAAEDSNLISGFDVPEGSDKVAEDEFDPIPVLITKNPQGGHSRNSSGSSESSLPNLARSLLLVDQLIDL

SMILES | IC50 [1] | IC50 [2]
CC(C)CCc1cc(C#N)c2cc(-c3ccncc3)ccc2n1 [Example 6, 2-Isopentyl-6-(pyridin-4-yl)quinoline-4-carbonitrile] | 11 to 100 nM | 
CC(C)CC(N)c1ccc2cc(-c3ccncc3)ccc2n1 (single isomer, unassigned; (+)) [Example 21, (+)-3-methyl-1-(6-(pyridin-4-yl)quinolin-2-yl)butan-1-amine] | 11 to 100 nM | 
CC(C)CCc1cc(N(C)C)c2cc(-c3ccncc3)ccc2n1 [Example 5, 2-Isopentyl-N,N-dimethyl-6-(pyridin-4-yl)quinolin-4-amine] | 11 to 100 nM | 
NC(=O)c1cc(C(N)C2CCCCC2)nc2ccc(-c3ccncc3)cc12 (single isomer, unassigned) [Example 40, 2-(amino(cyclohexyl)methyl)-6-(pyridin-4-yl)quinoline-4-carboxamide] | 101 to 2500 nM | 
CC(C)CCc1nc2ccc(-c3ccncc3)cc2cc1C#N [Example 18, 2-Isopentyl-6-(pyridin-4-yl)quinoline-3-carbonitrile] | 101 to 2500 nM | 
CC(C)CC(N)c1ccc2cc(-c3ccnc(NC(=O)c4ccc(C(F)(F)F)cc4)c3)ccc2n1 (stereo not drawn) [Example 42, N-(4-(2-(1-amino-3-methylbutyl)quinolin-6-yl)pyridin-2-yl)-4-(trifluoromethyl)benzamide] | 11 to 100 nM | 
CC(C)CCc1cc(Br)c2cc(-c3ccncc3)ccc2n1 [Example 3, 4-Bromo-2-isopentyl-6-(pyridin-4-yl)quinoline] | 11 to 100 nM | 
CC(C)CC(N)c1ccc2cc(-c3ccc4cnccc4c3)ccc2n1 (stereo not drawn) [Example 27, 1-(6-(isoquinolin-6-yl)quinolin-2-yl)-3-methylbutan-1-amine] | 101 to 2500 nM | 
COc1cc2nc(C(N)CC(C)C)cc(C#N)c2cc1-c1cnco1 (single isomer, unassigned; (+)) [Example 13, (+)-2-(1-Amino-3-methylbutyl)-7-methoxy-6-(oxazol-5-yl)quinoline-4-carbonitrile] |  | 4.1 nM
CC(=O)Nc1cc(-c2ccc3nc(C(N)CC(C)C)ccc3c2)c2ccccc2n1 (single isomer, unassigned) [Example 46, N-(2′-(1-amino-3-methylbutyl)-4,6′-biquinolin-2-yl)acetamide] | 101 to 2500 nM | 
COc1cc(-c2ccc3nc(C(N)CC(C)C)ccc3c2)ccn1 (stereo not drawn) [Example 24] | 101 to 2500 nM | 
CC(C)CCc1cc(O)c2cc(-c3ccncc3)ccc2n1 [Example 1, 2-Isopentyl-6-(pyridin-4-yl)quinolin-4-ol] | 11 to 100 nM | 
CC(=O)Nc1cc(-c2ccc3nc(C(N)CC(C)C)ccc3c2)c2ccccc2n1 (single isomer, unassigned) [Example 47, N-(2′-(1-amino-3-methylbutyl)-4,6′-biquinolin-2-yl)acetamide] |  | 1200 nM
CC(=O)Nc1cc(-c2ccc3nc(C(N)CC(C)C)ccc3c2)ccn1 (single isomer, unassigned) [Example 34, N-(4-(2-(1-amino-3-methylbutyl)quinolin-6-yl)pyridin-2-yl)acetamide] | 1 to 10 nM | 
CC(C)CC(N)c1ccc2cc(-c3cc(N)nc4ccccc34)ccc2n1 (single isomer, unassigned) [Example 48, 2′-(1-amino-3-methylbutyl)-4,6′-biquinolin-2-amine] | 101 to 2500 nM | 
CC(C)CC(=O)c1ccc2cc(-c3ccncc3)ccc2n1 [Example 19, 3-methyl-1-(6-(pyridin-4-yl)quinolin-2-yl)butan-1-one] | 101 to 2500 nM | 
CC(C)CC(N)c1ccc2cc(-c3ccnc(NC(=O)c4cccc(F)c4)c3)ccc2n1 (stereo not drawn) [Example 35, N-(4-(2-(1-amino-3-methylbutyl)quinolin-6-yl)pyridin-2-yl)-3-fluorobenzamide] | 11 to 100 nM | 
CC(C)CC(N)c1ccc2cc(-c3ccnc(C4CC4)c3)ccc2n1 (stereo not drawn) [Example 50, 1-(6-(2-cyclopropylpyridin-4-yl)quinolin-2-yl)-3-methylbutan-1-amine] | 101 to 2500 nM | 
CC(=O)Nc1cc(-c2ccc3nc(C(N)CC(C)C)ccc3c2)ccn1 (single isomer, unassigned) [Example 33, N-(4-(2-(1-amino-3-methylbutyl)quinolin-6-yl)pyridin-2-yl)acetamide] | 1 to 10 nM | 
CC(C)CC(N)c1ccc2cc(-c3cc(N)nc4ccccc34)ccc2n1 (single isomer, unassigned) [Example 49, 2′-(1-amino-3-methylbutyl)-4,6′-biquinolin-2-amine] | 101 to 2500 nM | 
CC(C)CC(N)c1cc(-c2nnn[nH]2)c2cc(-c3ccncc3)ccc2n1 (stereo not drawn) [Example 37, 3-methyl-1-(6-(pyridin-4-yl)-4-(1H-tetrazol-5-yl)quinolin-2-yl)butan-1-amine] | 1 to 10 nM | 
CC(C)CCc1nc2ccc(-c3ccncc3)cc2c(O)c1Br [Example 16, 3-Bromo-2-isopentyl-6-(pyridin-4-yl)quinolin-4-ol] | 11 to 100 nM | 
CC(=O)Nc1cc(-c2ccc3nc(C(=O)CC(C)C)ccc3c2)ccn1 [Example 30, N-(4-(2-(3-methylbutanoyl)quinolin-6-yl)pyridin-2-yl)acetamide] | 101 to 2500 nM | 
N#Cc1cc(C(N)C2CCCCC2)nc2ccc(-c3ccncc3)cc12 (stereo not drawn) [Example 41, 2-(amino(cyclohexyl)methyl)-6-(pyridin-4-yl)quinoline-4-carbonitrile] | 101 to 2500 nM | 
CC(C)C[C@@H](N)c1cc(C#N)c2cc(-c3ccncc3)ccc2n1 (single isomer, unassigned) [Example 7] |  | 12 nM
COc1cnccc1-c1ccc2nc(C(N)CC(C)C)ccc2c1 (single isomer, unassigned; (+)) [Example 22, (+)-1-(6-(3-methoxypyridin-4-yl)quinolin-2-yl)-3-methylbutan-1-amine] | 101 to 2500 nM | 
CC(C)C[C@H](N)c1cc(C#N)c2cc(-c3ccncc3)ccc2n1 (single isomer, unassigned) [Example 8] | 1 to 10 nM | 
CC(C)CC(N)c1ccc2cc(-c3ccnc(NC4CC4)c3)ccc2n1 (stereo not drawn) [Example 38, 4-(2-(1-amino-3-methylbutyl)quinolin-6-yl)-N-cyclopropylpyridin-2-amine] | 11 to 100 nM | 
CC(C)CCc1ccc2cc(-c3ccncc3)ccc2n1 [Example 4, 2-Isopentyl-6-(pyridin-4-yl)quinoline] | 101 to 2500 nM | 
CC(=O)Nc1cc(-c2ccc3nc(C(O)CC(C)C)ccc3c2)ccn1 (stereo not drawn) [Example 45, N-(4-(2-(1-hydroxy-3-methylbutyl)quinolin-6-yl)pyridin-2-yl)acetamide] | 11 to 100 nM | 
